According to patent US6737383B1, “Herbicidal oxadiazolidines” (priority 1999, dated 2004):

Key:
rape = test: Test B pre/postemergence rape; type: in vivo, Brassica napus
How it was run: (§1)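 Response is a visual 0-to-10 score relative to untreated plants, where 0 means no effect and 10 means complete control, taken twelve to sixteen days after application. Treatments went onto soil at planting and onto foliage of 1- to 4-leaf plants, using a surfactant-containing non-phytotoxic solvent.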

surinam grass = test: Test B pre/postemergence surinam grass; type: in vivo, Brachiaria decumbens
How it was run: as §1

giant foxtail = test: Test B pre/postemergence giant foxtail; type: in vivo, Setaria faberii
How it was run: as §1

blackgrass = test: Test B pre/postemergence blackgrass; type: in vivo, Alopecurus myosuroides
How it was run: as §1

morningglory = test: Test B pre/postemergence morningglory; type: in vivo, Ipomoea hederacea
How it was run: as §1

bedstraw = test: Test B pre/postemergence bedstraw; type: in vivo, Galium aparine; conditions: Preemergence
How it was run: as §1

wheat = test: Test B pre/postemergence wheat; type: in vivo, Triticum aestivum
How it was run: as §1

cocklebur = test: Test B pre/postemergence cocklebur; type: in vivo, Xanthium strumarium
How it was run: as §1

duck salad = test: Test B flood test duck salad; type: in vivo, Heteranthera limosa
How it was run: (§2)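 Each value is a visual injury score relative to controls, with 10 meaning complete control and 0 no effect. Evaluation took place twelve to sixteen days after the 2-leaf-stage plants were treated and kept in the greenhouse.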

smallflower flatsedge = test: Test B flood test smallflower flatsedge; type: in vivo, Cyperus difformis
How it was run: as §2

wild oat = test: Test B pre/postemergence wild oat; type: in vivo, Avena fatua
How it was run: as §1

velvetleaf = test: Test B pre/postemergence velvetleaf; type: in vivo, Abutilon theophrasti
How it was run: as §1

bamyardgrass = test: Test B flood test barnyardgrass; type: in vivo, Echinochloa crus-galli
How it was run: as §2

soybean = test: Test B pre/postemergence soybean; type: in vivo, Glycine max
How it was run: as §1

corn = test: Test B pre/postemergence corn; type: in vivo, Zea mays
How it was run: as §1

crabgrass = test: Test B pre/postemergence crabgrass; type: in vivo, Digitaria sanguinalis
How it was run: as §1

[1] = Postemergence, Rate 500 g/ha, scale of 0 to 10 where 0 is no effect and 10 is complete control
[2] = Preemergence, Rate 62 g/ha, scale 0 to 10 (0 no effect, 10 complete control)
[3] = Preemergence, Rate 125 g/ha, scale of 0 to 10 where 0 is no effect and 10 is complete control
[4] = Preemergence, Rate 250 g/ha, scale 0 to 10, 0 is no effect, 10 is complete control
[5] = Preemergence, Rate 500 g/ha, scale 0 to 10, 0 is no effect, 10 is complete control
[6] = Rate 62 g/ha, Postemergence, scale of 0 to 10 where 0 is no effect and 10 is complete control
[7] = Postemergence, Rate 125 g/ha, scale 0 to 10, 0 is no effect, 10 is complete control
[8] = Postemergence, Rate 250 g/ha, scale 0 to 10, 0 is no effect, 10 is complete control
[9] = Preemergence, Rate 250 g/ha, scale of 0 to 10 where 0 is no effect and 10 is complete control
[10] = Rate 62 g/ha, flood test species, Pre-emergence, visual evaluation after twelve to sixteen days
[11] = Rate 125 g/ha, under heading Pre-emergence, flood test species, visual evaluation after twelve to sixteen days
[12] = Rate 250 g/ha, Pre-emergence, flood-test species, scale 0 to 10, 0 is no effect, 10 is complete control
[13] = Rate 500 g/ha, Pre-emergence, flood test species, scale 0 to 10 (0 no effect, 10 complete control)

Structure (SMILES): Cc1nc(Cl)sc1C(C)n1c(=O)on(C(=O)N(c2ccc(F)cc2)C(C)C)c1=O (centres unmarked) [Compound 401]
- Rape plant response rating (rape; [1]): 7
- Plant response rating, Rape (rape; [2]): 0
- Plant response rating, Rape (rape; [3]): 0
- Rape plant response rating (rape; [4]): 0
- Rape plant response rating (rape; [5]): 0
- Rape plant response rating (rape; [6]): 0
- Plant response rating, B. signalgrass (surinam grass; [7]): 0
- Plant response rating, B. signalgrass (surinam grass; [8]): 0
- B. signalgrass plant response rating (surinam grass; [1]): 0
- Plant response rating, B. signalgrass (surinam grass; [2]): 0
- Plant response rating, B. signalgrass (surinam grass; [3]): 0
- B. signalgrass plant response rating (surinam grass; [9]): 0
- B. signalgrass plant response rating (surinam grass; Preemergence, Rate 500 g/ha, scale of 0 to 10 where 0 is no effect and 10 is complete control): 0
- B. signalgrass plant response rating (surinam grass; [6]): 0
- Plant response rating, Giant foxtail (giant foxtail; [7]): 0
- Plant response rating, Giant foxtail (giant foxtail; [8]): 2
- Giant foxtail plant response rating (giant foxtail; [1]): 6
- Plant response rating, Giant foxtail (giant foxtail; [2]): 0
- Plant response rating, Giant foxtail (giant foxtail; [3]): 6
- Giant foxtail plant response rating (giant foxtail; [4]): 7
- Giant foxtail plant response rating (giant foxtail; [5]): 8
- Giant foxtail plant response rating (giant foxtail; [6]): 0
- Plant response rating, Blackgrass (blackgrass; [7]): 0
- Plant response rating, Blackgrass (blackgrass; [8]): 0
- Blackgrass plant response rating (blackgrass; [1]): 0
- Plant response rating, Blackgrass (blackgrass; [2]): 0
- Plant response rating, Blackgrass (blackgrass; [3]): 0
- Blackgrass plant response rating (blackgrass; [9]): 0
- Blackgrass plant response rating (blackgrass; [5]): 2
- Blackgrass plant response rating (blackgrass; [6]): 0
- Plant response rating, Morningglory (morningglory; [8]): 6
- Morningglory plant response rating (morningglory; [1]): 7
- Plant response rating, Morningglory (morningglory; [2]): 0
- Plant response rating, Morningglory (morningglory; [3]): 0
- Morningglory plant response rating (morningglory; [4]): 0
- Morningglory plant response rating (morningglory; [5]): 0
- Morningglory plant response rating (morningglory; [6]): 3
- Plant response rating, Bedstraw (bedstraw; Rate 62 g/ha, scale 0 to 10 (0 no effect, 10 complete control)): 0
- Plant response rating, Bedstraw (bedstraw; Rate 125 g/ha, scale of 0 to 10 where 0 is no effect and 10 is complete control): 0
- Wheat plant response rating (wheat; [1]): 0
- Plant response rating, Wheat (wheat; [2]): 0
- Plant response rating, Wheat (wheat; [3]): 0
- Wheat plant response rating (wheat; [4]): 0
- Wheat plant response rating (wheat; [5]): 0
- Wheat plant response rating (wheat; [6]): 0
- Plant response rating, Cocklebur (cocklebur; [7]): 0
- Plant response rating, Cocklebur (cocklebur; [8]): 0
- Cocklebur plant response rating (cocklebur; [1]): 1
- Plant response rating, Cocklebur (cocklebur; [2]): 0
- Plant response rating, Cocklebur (cocklebur; [3]): 0
- Cocklebur plant response rating (cocklebur; [4]): 0
- Cocklebur plant response rating (cocklebur; [5]): 0
- Cocklebur plant response rating (cocklebur; [6]): 0
- Plant response rating, Ducksalad (0 to 10 scale, 0 is no effect, 10 is complete control) (duck salad; [10]): 0
- Ducksalad plant response rating (0 to 10 scale, 0 is no effect, 10 is complete control) (duck salad; [11]): 0
- Ducksalad plant response rating (duck salad; [12]): 0
- Ducksalad plant response rating (duck salad; [13]): 0
- Plant response rating, S. Flatsedge (0 to 10 scale, 0 is no effect, 10 is complete control) (smallflower flatsedge; [10]): 0
- S. Flatsedge plant response rating (0 to 10 scale, 0 is no effect, 10 is complete control) (smallflower flatsedge; [11]): 0
- S. Flatsedge plant response rating (smallflower flatsedge; [12]): 0
- S. Flatsedge plant response rating (smallflower flatsedge; [13]): 0
- Wild oats plant response rating (wild oat; [1]): 0
- Plant response rating, Wild oats (wild oat; [2]): 0
- Plant response rating, Wild oats (wild oat; [3]): 0
- Wild oats plant response rating (wild oat; [4]): 0
- Wild oats plant response rating (wild oat; [5]): 0
- Wild oats plant response rating (wild oat; [6]): 0
- Plant response rating, Velvetleaf (velvetleaf; [8]): 0
- Velvetleaf plant response rating (velvetleaf; [1]): 3
- Plant response rating, Velvetleaf (velvetleaf; [2]): 0
- Plant response rating, Velvetleaf (velvetleaf; [3]): 0
- Velvetleaf plant response rating (velvetleaf; [4]): 0
- Velvetleaf plant response rating (velvetleaf; [5]): 0
- Velvetleaf plant response rating (velvetleaf; [6]): 0
- Plant response rating, Barnyardgrass (0 to 10 scale, 0 is no effect, 10 is complete control) (bamyardgrass; [10]): 0
- Barnyardgrass plant response rating (0 to 10 scale, 0 is no effect, 10 is complete control) (bamyardgrass; [11]): 0
- Barnyardgrass plant response rating (bamyardgrass; [12]): 0
- Barnyardgrass plant response rating (bamyardgrass; [13]): 0
- Plant response rating, Soybean (soybean; [8]): 1
- Soybean plant response rating (soybean; [1]): 1
- Plant response rating, Soybean (soybean; [2]): 0
- Plant response rating, Soybean (soybean; [3]): 0
- Soybean plant response rating (soybean; [4]): 0
- Soybean plant response rating (soybean; [5]): 3
- Soybean plant response rating (soybean; [6]): 0
- Plant response rating, Corn (corn; [7]): 0
- Plant response rating, Corn (corn; [8]): 0
- Corn plant response rating (corn; [1]): 0
- Plant response rating, Corn (corn; [2]): 0
- Plant response rating, Corn (corn; [3]): 0
- Corn plant response rating (corn; [4]): 0
- Corn plant response rating (corn; [5]): 0
- Corn plant response rating (corn; [6]): 0
- Plant response rating, Crabgrass (crabgrass; [7]): 0
- Plant response rating, Crabgrass (crabgrass; [8]): 2
- Crabgrass plant response rating (crabgrass; [1]): 3
- Plant response rating, Crabgrass (crabgrass; [2]): 0
- Plant response rating, Crabgrass (crabgrass; [3]): 2
- Crabgrass plant response rating (crabgrass; [4]): 8
- Crabgrass plant response rating (crabgrass; [5]): 10
- Crabgrass plant response rating (crabgrass; [6]): 0
